{
  "source": "patent US10370364B1",
  "about": "“Substituted chromenes for treatment of fibrosis or non-alcoholic steatohepatitis” (OSTEONEUROGEN INC., priority 2018, dated 2019)",
  "key": {"[1]": {"test_system": "α-SMA (alpha-smooth muscle actin)", "test": "α-SMA expression in ONGHEPA1 cells by immunofluorescent staining", "format": "cell-based, rat", "conditions": "TGF-β plus compound 50 μM", "text": "In addition, in order to examine whether the above-described effect would be attributable to the effect against epithelial-mesenchymal transition (EMT) (hereinafter referred to as “EMT”), the expression of α-SMA (alpha-smooth muscle actin), which is a representative marker of EMT, in the cells of each test group, was examined by immunofluorescent staining and nuclear staining (DAPI staining)."}, "physchem": {"test": "physchem", "experimental": "The compound of the present invention was added to phosphate buffer (pH 7.4) at a concentration of 1 mg/ml and stirred. After 16 hours, the sample was filtered through a filter, and the supernatant was analyzed by HPLC-UV, thereby determining the content of compound dissolved."}, "C57BL/6 mice": {"test_system": "C57BL/6 mice", "test": "Bleomycin-induced pulmonary fibrosis animal model", "format": "in vivo", "conditions": "for Mean Collagen % (histopathology collagen morphometry, left lung): Sirius red", "text": "5-week-old male C57BL/6 mice (weighed 18.2 to 20.5 g) (KOATECH, Korea) were used as experimental animals and divided into several groups, each consisting of 5 animals.\nThe experimental animals were housed in a housing box having a size of 369 L×156 W×132H (mm) (EU, USA, UK GL compliance) made of a polysulfone material in a SPF (Specific Pathogen Free) and BSL (Bio Safety Level) 2 grade facility. The number of animals in each housing box was 2 to 3 during the period of quarantine and acclimatization and was also 2 to 3 during the experimental period, and the housing conditions were set to a temperature of 22±2° C., a relative humidity of 50.0±15.0%, a ventilation cycle of 10 to 20 times/hr, a light-dark cycle (a photoperiod) of 12 hr/day (07:00 to 19:00), and an illumination intensity of 150 to 300 Lux.\nPulmonary fibrosis was induced by injecting a bleomycin solution directly into the lungs via the trachea according to the intratracheal instillation (IT) method of Kremer, Laxer and Berkman et al. Specifically, C57BL/6J mice were anesthetized through inhalation with 70% N2O and 30% O2 gas and 1.5% isoflurane, and the skin of the anterior neck thereof was excised and the organs under the muscle thereof were exposed and then carefully excised using ophthalmic surgical scissors. 50 μL of a solution of bleomycin in distilled water was injected directly into the lungs all at once via the excised organ by use of a 1 mL syringe fitted with a 19-gauge injection needle having a blunt tip. Immediately after the injection, the excised skin of the anterior neck was sutured and the mice were allowed to recover from the anesthetic, and then housed in a general housing cage. The administration of bleomycin was performed using a visual instillobot, and bleomycin-HCl 40 μg/50 μL was administered once and a pulmonary fibrosis induction period of 12 days was set.\nThe compound of the present invention was used after dissolution in 30% HPCD aqueous solution (Formulation Example 5), and the dose for each individual was calculated based on the recent body weight thereof. 12 Days after the administration of bleomycin, the compound of the present invention was administered once a day (5 times a week) for 2 weeks. As a control, pirfenidone which is a therapeutic agent for idiopathic pulmonary fibrosis was administered in the same manner.\nOn 15 days after administration of the compound, the mice were sacrificed, and then the right lung of each mouse was dissected and the weight thereof was measured. […] In particular, it is noted that the inhibitory effect of the compound in the group administered at 10 mpk was the highest compared to that in the group administered at 50 or 100 mpk and was also higher than that in the group administered with pirfenidone 100 mpk.\nThe amounts of hydroxyproline (HP) and collagen in the dissected right lung were measured using a known method.\nHistopathology collagen morphometry of the dissected left lung tissue was performed using a known method (calculating the area of collagen in an optical image obtained by Sirius red staining of the lung tissue sample).\nThe pathological conditions of the left lung tissue dissected using a known method were examined by H&E and Sirius Red staining. […] In particular, it is noted that the inhibitory effect of the compound in the group administered at 10 mpk was the highest compared to that in the groups administered at other concentrations.\nIn order to examine the effect of each treatment in this Experiment on the liver, the liver of each of the sacrificed mice was dissected, and the pathological conditions of the liver tissue were examined by H&E staining."}, "[2]": {"test": "Concentration of compound in plasma and lung of bleomycin fibrotic mice", "format": "in vivo", "conditions": "1 hour after final administration; pirfenidone 100 mpk, Compound 1 10-100 mpk PO", "experimental": "The amounts of the compound present in the plasma and lung of each of the sacrificed mice (finally administered with each compound at 1 hour before sacrifice) were measured. […] If it is attempted to formulate the compound of the present invention in various manners, it is expected that the compound of the present invention can effectively treat fibrosis even at lower concentrations."}, "STAM mice": {"test_system": "STAM mice", "test": "Non-alcoholic steatohepatitis animal model (STAM mice), NAFLD activity score", "format": "in vivo", "conditions": "50 mpk oral, Formulation Example 2, once a day five times a week", "experimental": "STAM mice (SMC Laboratories, Inc., Japan), which are non-alcoholic steatohepatitis animal models, were used as experimental animals. These animal models were administered with streptozotocin immediately after birth, and fed with high-fat-diet after 3 weeks. Then, in the mouse model, non-alcoholic steatohepatitis occurred at 6 to 9 weeks, and liver fibrosis, cirrhosis and liver cancer occurred within 9 to 12 weeks.\nOver 6 to 9 weeks after administration of streptozotocin, the compound of the present invention, dissolved in a mixture solution of Tween80 and 0.5% CMC aqueous solution (1:99 (v/v)) (Formulation Example 2), was orally administered to the animal models once a day (five times a week). As controls, telmisartan and OCA (obeticholic acid) were administered in the same manner.\nAt […] after administration of streptozotocin (a time point after 3-week administration of the compound), the mice were sacrificed, the liver of each mouse was dissected, the invasion of inflammatory cells was observed by […] of the liver tissue, and fibrosis of the liver tissue was observed by Sirius Red staining (see FIG. 42). In addition, the degrees of inflammation, fibrosis, liver cell ballooning and adipose accumulation observed were measured, data integration was performed, and the NAFLD (nonalcoholic fatty liver disease) activity score was statistically processed by t-test."}, "CYP3A4": {"target": "CYP3A4 (Homo sapiens, UniProt P08684)", "sequence (P08684 whole entry)": "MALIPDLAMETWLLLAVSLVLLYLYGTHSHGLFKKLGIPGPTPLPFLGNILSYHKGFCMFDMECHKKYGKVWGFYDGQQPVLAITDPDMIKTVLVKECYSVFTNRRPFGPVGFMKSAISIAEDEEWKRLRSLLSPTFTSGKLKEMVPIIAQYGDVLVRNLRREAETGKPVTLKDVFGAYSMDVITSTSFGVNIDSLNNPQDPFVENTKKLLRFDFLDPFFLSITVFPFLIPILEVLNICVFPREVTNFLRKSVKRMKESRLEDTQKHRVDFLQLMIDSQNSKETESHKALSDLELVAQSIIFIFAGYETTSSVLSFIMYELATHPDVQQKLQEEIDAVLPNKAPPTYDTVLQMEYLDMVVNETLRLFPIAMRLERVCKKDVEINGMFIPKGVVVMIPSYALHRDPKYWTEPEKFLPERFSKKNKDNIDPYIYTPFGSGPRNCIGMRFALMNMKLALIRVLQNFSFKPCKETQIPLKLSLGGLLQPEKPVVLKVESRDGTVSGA"}},
  "data": [
    {"smiles": "COc1ccc(-c2cc(=O)c3c(O)c(OC)c(OCCN4CCNC(=O)C4)cc3o2)cc1OC", "note": "[Compound 1, 4-(2-((2-(3,4-dimethoxyphenyl)-5-hydroxy-6-methoxy-4-oxo-4H-chromen-7-yl)oxy)ethyl)piperazin-2-one]", "values": [
      {"measurement": "expression of α-SMA", "setting": "[1]", "result": "inhibited"},
      {"measurement": "solubility in the buffer (in words)", "setting": "physchem; pH 7.4", "result": "lower than that of caffeine, but higher than that of diethyl stilbesterol"},
      {"measurement": "solubility at 16 h", "setting": "physchem; pH 7.4, aqueous buffer, thermodynamic from solid", "result": 9.59, "unit": "µg/mL"},
      {"measurement": "Protection Collagen %", "setting": "C57BL/6 mice; 10 mpk PO", "result": 59, "unit": "%"},
      {"measurement": "Mean Collagen % (histopathology collagen morphometry, left lung)", "setting": "C57BL/6 mice; 10 mpk PO", "result": 2.8, "unit": "%"},
      {"measurement": "inhibitory effect on right lung weight, comparison of dose groups", "setting": "C57BL/6 mice; 10 mpk compared to 50 or 100 mpk and pirfenidone 100 mpk", "result": "the highest"},
      {"measurement": "inhibitory effect on lung fibrosis symptoms, comparison of dose groups", "setting": "C57BL/6 mice; 10 mpk compared to other concentrations", "result": "the highest"},
      {"measurement": "Protection Collagen %", "setting": "C57BL/6 mice; 50 mpk PO", "result": 66, "unit": "%"},
      {"measurement": "Mean Collagen % (histopathology collagen morphometry, left lung)", "setting": "C57BL/6 mice; 50 mpk PO", "result": 2.4, "unit": "%"},
      {"measurement": "Protection Collagen %", "setting": "C57BL/6 mice; 100 mpk PO", "result": 59, "unit": "%"},
      {"measurement": "Mean Collagen % (histopathology collagen morphometry, left lung)", "setting": "C57BL/6 mice; 100 mpk PO", "result": 2.8, "unit": "%"},
      {"measurement": "amount of collagen in right lung", "setting": "C57BL/6 mice; bleomycin mice, 10-100 mpk PO", "result": "significantly inhibited this increase"},
      {"measurement": "amount of hydroxyproline (HP) in right lung", "setting": "C57BL/6 mice; bleomycin mice, 10-100 mpk PO", "result": "significantly inhibited this increase"},
      {"measurement": "fibrosis symptoms of left lung tissue, H&E and Sirius Red staining", "setting": "C57BL/6 mice; bleomycin mice, 10-100 mpk PO", "result": "significantly inhibited such fibrosis symptoms"},
      {"measurement": "increase of collagen in left lung tissue, morphometry (in words)", "setting": "C57BL/6 mice; bleomycin mice, 10-100 mpk PO", "result": "significantly inhibited this increase"},
      {"measurement": "increase in the right lung weight", "setting": "C57BL/6 mice; bleomycin mice, 10-100 mpk PO in 30% HPCD, once a day 5 times a week for 2 weeks", "result": "significantly inhibited"},
      {"measurement": "pathological condition of liver tissue, H&E staining", "setting": "C57BL/6 mice; bleomycin mice, 50 mpk", "result": "showed hepatotoxic symptoms"},
      {"measurement": "pathological condition of liver tissue, H&E staining", "setting": "C57BL/6 mice; bleomycin mice, 100 mpk", "result": "showed hepatotoxic symptoms"},
      {"measurement": "inhibitory effect on collagen, comparison of dose groups", "setting": "C57BL/6 mice; group administered at 100 mpk", "result": "highest"},
      {"measurement": "inhibitory effect on hydroxyproline, comparison of dose groups", "setting": "C57BL/6 mice; group administered at 100 mpk", "result": "highest"},
      {"measurement": "pathological condition of liver tissue, H&E staining", "setting": "C57BL/6 mice; mouse, in vivo, 10 mg/kg", "result": "showed the same condition as that of normal liver tissue"},
      {"measurement": "concentration of the compound in the lung", "setting": "[2]", "result": "relatively very low"},
      {"measurement": "concentration of the compound in the plasma", "setting": "[2]", "result": "relatively very low"},
      {"measurement": "NAFLD activity score (t-test)", "setting": "STAM mice", "result": "statistically significant anti-NASH effects"},
      {"measurement": "inhibitory activity against CYP3A4 (in words)", "setting": "CYP3A4", "result": "little or very low inhibitory activity"}
    ]}
  ]
}
